In one data set the test system is Ramos B cells. Description: Ramos pErk Assay. The format is cell-based. As to conditions: Homo sapiens, as the hydrochloride salts, anti-IgM stimulated. As to the method:
Ramos B cells (human B cells of Burkitt's Lymphoma) are stimulated using anti-IgM. […] The subsequent autophosphorylation of Syk leads to initiation of a signalling cascade resulting in B cell activation via the Erk MAP Kinase pathway. As a result Erk is phosphorylated and following cell lysis is detected by an immune capture assay.
Cells were plated at a density of 2.5×10^5/well in a volume of 25 μl assay medium (RPMI containing 10% heat inactivated foetal calf serum, 1% L-glutamine) in 96 v-well polypropylene plates. 25 μl appropriately diluted compound solution was added and the plate incubated for 30 min at 37° C. with 5% CO2. Cells were stimulated with 5 μl Fab′2 fragments of goat anti-human IgM (5 μg/ml final) for 7 min at 37° C. Cells are lysed by the addition of 55 μL 2×RIPA lysis buffer for 2 h at 4° C. Lysate may be frozen at this point at −80° C.
50 μl cell lysate was transferred to a 96 well MSD plate coated with anti-pErk1/2 (Thr/Tyr:202/204; 185/187) capture antibody and incubated for 16 hours at 4° C. or 3 hours at room temperature. The plate was washed and an anti-pErk detection antibody added (25 μl/well) for 1 hour at room temperature. This was removed, 150 μL MSD read buffer added and the resultant electrochemiluminescence signal measured.
Compound was prepared as a 10 mM stock in DMSO and a dilution series prepared in DMSO using 9 successive 5-fold dilutions. This dilution series was diluted a further 1:100 with assay medium to give the final concentration range to be tested of 5×10^−5 to 2.56×10^−11M. Compound dilutions were prepared using the Biomek 2000 and Biomek Nx automated robotic pipetting systems.

The target in another data set is T1, hERG (Homo sapiens, UniProt Q12809).
T1 construct: expressed in transfected cells; host or cells: CHO-K1 cells stably expressing human hERG; membrane fraction
T1 sequence (Q12809 whole entry): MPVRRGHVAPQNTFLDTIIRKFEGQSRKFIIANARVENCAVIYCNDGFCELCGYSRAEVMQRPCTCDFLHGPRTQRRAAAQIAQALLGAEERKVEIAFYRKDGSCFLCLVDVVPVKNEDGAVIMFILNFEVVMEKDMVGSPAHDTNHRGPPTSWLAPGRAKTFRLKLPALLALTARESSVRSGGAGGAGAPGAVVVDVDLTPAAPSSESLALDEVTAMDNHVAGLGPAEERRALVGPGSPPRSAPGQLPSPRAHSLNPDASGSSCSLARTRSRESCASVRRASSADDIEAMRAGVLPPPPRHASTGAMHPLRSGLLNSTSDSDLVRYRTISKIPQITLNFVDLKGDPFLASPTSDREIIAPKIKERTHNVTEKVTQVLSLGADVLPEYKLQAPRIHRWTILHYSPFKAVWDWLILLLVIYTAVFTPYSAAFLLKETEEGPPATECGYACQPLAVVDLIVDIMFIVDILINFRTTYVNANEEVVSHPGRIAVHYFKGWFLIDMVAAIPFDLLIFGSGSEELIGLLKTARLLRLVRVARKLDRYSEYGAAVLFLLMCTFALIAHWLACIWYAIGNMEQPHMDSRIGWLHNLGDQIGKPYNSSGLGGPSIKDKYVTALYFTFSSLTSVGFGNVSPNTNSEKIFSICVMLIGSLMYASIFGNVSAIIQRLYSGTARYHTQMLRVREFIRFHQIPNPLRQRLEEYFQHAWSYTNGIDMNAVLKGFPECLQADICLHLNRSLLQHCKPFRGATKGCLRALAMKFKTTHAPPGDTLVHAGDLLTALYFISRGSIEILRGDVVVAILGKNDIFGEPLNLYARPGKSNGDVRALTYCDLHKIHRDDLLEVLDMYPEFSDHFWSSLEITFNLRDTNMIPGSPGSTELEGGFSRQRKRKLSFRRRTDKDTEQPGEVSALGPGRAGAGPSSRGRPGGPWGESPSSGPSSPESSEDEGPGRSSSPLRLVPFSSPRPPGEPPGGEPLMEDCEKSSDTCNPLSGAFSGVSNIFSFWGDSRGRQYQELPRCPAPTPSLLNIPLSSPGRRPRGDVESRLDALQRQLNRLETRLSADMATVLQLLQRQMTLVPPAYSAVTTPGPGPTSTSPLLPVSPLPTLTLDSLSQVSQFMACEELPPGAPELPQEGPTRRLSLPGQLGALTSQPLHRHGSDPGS
The data set is described as follows: Cy3B Dofetilide Fluoro-Ligand Binding Assay for hERG. As to conditions: membranes of CHO-K1 cells that express hERG, pH 7.4, probe Cy3b-Dofetilide fluoro-ligand, 1.0 nM, hERG-expressing CHO-K1 membranes. As to the method:
Compound potencies were determined by a fluoro-ligand^§ (Cy3b-Dofetilide) fluorescence polarisation assay.
hERG-expressing CHO-K1 membranes* (60 μg/ml) were incubated with 1.0 nM fluoro-ligand^§, in assay buffer (25 mM HEPES, 1.2 mM MgCl2, 100 mM KCl and 0.1% pluronic, pH adjusted to 7.4 using 5M KOH). The final potassium concentration in the assay was 100 mM. After 70 min mixing at room temperature, in the dark, 10 μl was dispensed into each well of a black LV Greiner 384-well plate containing 0.1 μl of test compound in DMSO. The plates were left to equilibrate for 2 h before reading on an Acquest™/Analyst™ imager. pIC50 data were generated using from an 11-point inhibition curve (top assay concentration of 50 μM and a 1:3 step-dilution), a […] curve-fit being applied using ABase and XC50 to analyse data and generate curve fits.
Chinese Hamster Ovary (CHO) cells stably expressing the human hERG receptor were grown to 80% confluency before being harvested by trypsinisation and subsequent centrifugation at 500 g for 10 min. Cell pellets were frozen at −80 C before membrane production. The frozen pellet was thawed on ice, re-suspended and homogenised in 10 volumes of membrane buffer (50 mM HEPES, pH 7.4, 1 mM EDTA, 1 mM PMSF, 2×10^-6M Pepstatin A). The membrane suspension was centrifuged for 20 min at 500 g, the pellet discarded and the supernatent spun again at 48,000 g for 30 min. Following the second centrifugation the remaining pellet containing the membrane fraction was re-suspended in an appropriate volume (4 ml for each ml of frozen cell pellet) and assayed for protein concentration.
A general note: The hERG channel carries a current that helps repolarise heart muscle cells.

The test system of data set [1] is Salmonella typhimurium strains and Escherichia coli. The data set is described as follows: Bacterial Mutation Screening Assay (Ames Test). As to conditions: as the free base; presence and absence of S9-mix. An excerpt: The bacterial mutation assay (Ames Test) is a short-term reverse mutation assay specifically designed to detect a wide range of chemical substances that can produce genetic damage that leads to gene mutations (base pair substitutions and frameshift mutations).
The test employs several histidine dependent Salmonella typhimurium strains and several tryptophan dependent strains of Escherichia coli each carrying different mutations in various genes in the histidine or tryptophan operon respectively. These mutations act as hot spots for mutagens that cause DNA damage via different mechanisms.
Briefly, bacteria are cultured for 10 h prior to the test. Top agar is supplemented with trace amounts of histidine, biotin, and tryptophan and aliquoted, before adding the required test article, vehicle or positive control followed by the appropriate bacterial suspension, and either an exogenous mammalian oxidative metabolism system (S9-mix) or buffer solution. The final mixture is poured over minimal agar plates which are then inverted and incubated before scoring for revertant colonies.
Bacterial Strains routinely used are Salmonella typhimurium strains TA98, TA100 TA1535 and TA1537 and Escherichia coli WP2 uvrA (pKM101).
Assays are performed in the presence and absence of an exogenous mammalian oxidative metabolising system (S9-mix), to mimic mammalian metabolism.
The highest concentration tested is one that allows maximum exposure up to 5000 μg/plate for freely soluble compounds, or the limit of solubility or toxicity (whichever is the lower). If compound solubility is a limiting factor, the maximum concentration chosen will be the lowest concentration at which compound precipitate is observed by eye on treatment plates at the end of the incubation period.
A single mutation assay (using the plate incorporation methodology) is conducted in the presence and absence of S9-mix (consisting of 4 replicate plates for vehicle controls and 2 replicate plates for the positive controls and test article).
Plates are usually scored electronically for bacterial colony formation following inspection of the plates for signs of toxicity (i.e. reduced growth (diminution) of background lawn, the presence of pin-dot/pseudorevertant colonies and/or a reduction in colony numbers). Plates will also be evaluated (by eye) for compound precipitation. […]
The number of colonies on each plate is recorded and mean values calculated for each concentration of test article used. Mean values are also be expressed as a ratio of the mean concurrent vehicle control value (i.e. fold increase). […]

Where [2] appears, read: as the free base, read-out: average IC50.
Where [3] appears, read: form not stated (first list), read-out: average pIC50 (converted).
The mark [4] stands for this setting: hydrochloric acid salts, read-out: average IC50.
Where [5] appears, read: hydrochloric acid salts, read-out: average pIC50 (converted).

Read-outs that look alike come from different tables or passages of the source.

Regarding `CCn1cc(-c2cc3ncccc3c(NC[C@]3(F)CCCNC3)n2)cn1` [Example 1, 7-(1-Ethyl-1H-pyrazol-4-yl)-N-{[(3S)-3-fluoro-3-piperidinyl]methyl}-1,6-naphthyridin-5-amine], the IC50 in the data set with Ramos B cells was under 1 µM. The IC50 at 2 h was over 10 µM on hERG (setting [2]), over 10 µM on hERG (setting [3]), over 20 µM on hERG (setting [4]) and over 10 µM on hERG (setting [5]). In data set [1], the Ames test result is given as “negative”.

Turning to `CC(C)(C)n1cc(-c2cc3ncccc3c(NC[C@]3(F)CCCNC3)n2)cn1` [Example 2, 7-[1-(1,1-Dimethylethyl)-1H-pyrazol-4-yl]-N-{[(3S)-3-fluoro-3-piperidinyl]methyl}-1,6-naphthyridin-5-amine], the IC50 in the data set on Ramos B cells was under 1 µM. Moreover, the IC50 at 2 h at hERG (setting [2]) was over 10 µM; on hERG (setting [3]), over 10 µM; at hERG (setting [4]), over 20 µM; on hERG (setting [5]), over 10 µM. Besides, the Ames test result in data set [1] is reported as “negative”.

On to `COCn1cc(-c2cc3ncccc3c(NC[C@]3(F)CCCNC3)n2)cn1` [Example 3, N-{[(3S)-3-Fluoro-3-piperidinyl]methyl}-7-{1-[(methyloxy)methyl]-1H-pyrazol-4-yl}-1,6-naphthyridin-5-amine], for which the IC50 in the data set on Ramos B cells was under 1 µM. Moreover, the IC50 at 2 h at hERG (setting [2]) was over 10 µM; on hERG (setting [3]), over 10 µM; on hERG (setting [4]), over 20 µM; on hERG (setting [5]), over 10 µM. Further, the Ames test result in data set [1] is reported as “negative”.

For the compound `CCn1cc(-c2cc3ncccc3c(OC[C@]3(F)CCCNC3)n2)cn1` [Example 4, 7-(1-Ethyl-1H-pyrazol-4-yl)-5-({[(3S)-3-fluoro-3-piperidinyl]methyl}oxy)-1,6-naphthyridine], in the data set with Ramos B cells, the IC50 was under 1 µM. The IC50 at 2 h at hERG (setting [2]) was over 10 µM; on hERG (setting [3]) it was over 10 µM; at hERG (setting [4]), over 20 µM; at hERG (setting [5]), over 10 µM. In addition, the Ames test result in data set [1] was “negative”.

For the origin of these results see patent US8633319B2, “7-(1H-pyrazol-4-yl)-1,6-naphthyridine compounds as Syk inhibitors” (Glaxo Group Limited, priority 2010, dated 2014).
